In US10669272B2, “Substituted naphthyridinone compounds useful as T cell activators” (BRISTOL-MYERS SQUIBB COMPANY, priority 2018, dated 2020):
Read-outs that look alike come from different tables or passages of the source.

Tests used:
human DGKζ = biological target: T1, human DGKζ (Homo sapiens, UniProt Q13574); test: DGKζ LIPGLO assay (extruded liposome substrate), in vitro DGK inhibition; assay type: biochemical; details: read-out: DGKz LIPGLO IC50
T1 construct: TVMV protease cleavage site (C); Hexa-His (C); made in house; host or cells: Sf9 insect cells (baculovirus, Bac-to-Bac)

human DGKα = biological target: T2, human DGKα (Homo sapiens, UniProt P23743); test: DGKα LIPGLO assay (extruded liposome substrate), in vitro DGK inhibition; assay type: biochemical; details: read-out: DGKa LIPGLO IC50
T2 construct: TVMV protease cleavage site (C); Hexa-His (C); made in house; host or cells: Sf9 insect cells (baculovirus, Bac-to-Bac)

Human venous whole blood = test: Human whole blood IFN-γ assay; assay type: cell-based; details: human whole blood, read-out: INFg Whole Blood Normalized Agonist EC50;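 also: blood from healthy donors exposed to compound for 1 h before stimulation with anti-CD3 and anti-CD28 at 1 µg/mL each, IFN-γ quantified in supernatant by AlphaLISA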
Description: Human Whole Blood IFN-γ Assay
Human venous whole blood (22.5 μL per well), obtained from healthy donors, was pre-treated with compounds for one hour at 37° C. in a humidified 95% air/5% CO2 incubator. The blood was stimulated with 2.5 μL anti-human CD3 and anti-CD28 mAb at a final concentration of 1 μg/mL each for 24 hours at 37° C. IFN-γ in the supernatants was measured using AlphLISA kit (Cat # AL217).

[1] = Homo sapiens, 24 h, anti-CD3 plus anti-CD28, 24 hours, 3 μM reference compound = 100% activation
[2] = normalized to 3 μM reference compound with anti-CD3 plus anti-CD28 as 100% activation
[3] = Homo sapiens, 24 h, normalized to 3 μM reference compound with anti-CD3 plus anti-CD28 as 100% activation
[4] = anti-CD3 plus anti-CD28, 24 hours, 3 μM reference compound = 100% activation

T1 sequence (Q13574 with tags, fused parts or gaps isoform Q13574-4): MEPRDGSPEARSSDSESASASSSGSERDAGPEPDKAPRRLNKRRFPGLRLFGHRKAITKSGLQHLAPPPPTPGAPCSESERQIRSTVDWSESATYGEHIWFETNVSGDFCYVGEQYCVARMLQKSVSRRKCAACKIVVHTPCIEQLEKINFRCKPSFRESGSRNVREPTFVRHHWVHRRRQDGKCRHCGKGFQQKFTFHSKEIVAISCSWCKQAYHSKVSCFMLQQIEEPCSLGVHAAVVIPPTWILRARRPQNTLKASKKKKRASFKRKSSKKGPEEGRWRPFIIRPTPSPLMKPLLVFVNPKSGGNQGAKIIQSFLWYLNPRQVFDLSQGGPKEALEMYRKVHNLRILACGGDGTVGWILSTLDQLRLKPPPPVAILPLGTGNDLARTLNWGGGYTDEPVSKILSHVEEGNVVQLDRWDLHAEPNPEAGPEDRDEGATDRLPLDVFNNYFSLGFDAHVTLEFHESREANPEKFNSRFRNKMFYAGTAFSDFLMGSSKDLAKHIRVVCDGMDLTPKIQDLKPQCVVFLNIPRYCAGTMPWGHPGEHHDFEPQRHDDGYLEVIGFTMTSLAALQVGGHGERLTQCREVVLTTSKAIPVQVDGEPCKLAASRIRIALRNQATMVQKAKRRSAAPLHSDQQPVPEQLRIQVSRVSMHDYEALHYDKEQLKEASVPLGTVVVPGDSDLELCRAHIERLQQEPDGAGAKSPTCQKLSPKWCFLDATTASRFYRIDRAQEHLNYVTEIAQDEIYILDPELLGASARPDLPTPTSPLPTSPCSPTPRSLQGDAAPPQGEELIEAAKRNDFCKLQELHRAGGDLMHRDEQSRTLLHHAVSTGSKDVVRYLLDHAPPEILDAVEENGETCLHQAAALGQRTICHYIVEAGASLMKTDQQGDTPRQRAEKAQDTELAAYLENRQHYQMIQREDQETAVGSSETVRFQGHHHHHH
T2 sequence (P23743 with tags, fused parts or gaps): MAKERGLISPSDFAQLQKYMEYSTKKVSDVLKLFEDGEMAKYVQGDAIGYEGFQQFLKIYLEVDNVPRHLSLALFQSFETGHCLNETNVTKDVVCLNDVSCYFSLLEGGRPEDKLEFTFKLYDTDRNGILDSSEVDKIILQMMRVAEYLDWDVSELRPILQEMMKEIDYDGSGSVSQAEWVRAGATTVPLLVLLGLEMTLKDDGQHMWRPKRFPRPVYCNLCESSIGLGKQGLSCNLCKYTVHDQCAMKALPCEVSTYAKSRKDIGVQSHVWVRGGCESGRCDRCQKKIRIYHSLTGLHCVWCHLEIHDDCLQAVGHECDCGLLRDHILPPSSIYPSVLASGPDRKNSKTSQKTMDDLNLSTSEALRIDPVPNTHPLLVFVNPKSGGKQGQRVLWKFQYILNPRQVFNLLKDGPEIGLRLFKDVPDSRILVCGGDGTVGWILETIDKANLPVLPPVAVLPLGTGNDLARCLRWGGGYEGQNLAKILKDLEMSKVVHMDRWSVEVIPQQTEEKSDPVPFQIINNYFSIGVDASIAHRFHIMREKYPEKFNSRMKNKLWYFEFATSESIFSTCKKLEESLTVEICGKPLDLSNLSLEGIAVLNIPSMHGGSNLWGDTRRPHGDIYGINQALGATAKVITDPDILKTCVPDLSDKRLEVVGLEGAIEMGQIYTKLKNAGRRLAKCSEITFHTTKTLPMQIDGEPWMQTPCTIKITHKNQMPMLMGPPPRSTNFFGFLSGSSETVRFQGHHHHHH

| SMILES | IC50 (human DGKζ; DGKζ liposome (LIPGLO) assay) | IC50 (human DGKα; DGKα liposome (LIPGLO) assay) | EC50 (Human venous whole blood; [1]) | IC50 (human DGKζ; liposome (LIPGLO) assay) | IC50 (human DGKα; liposome (LIPGLO) assay) | EC50 (Human venous whole blood; [2]) | EC50 (Human venous whole blood; [3]) | EC50 (Human venous whole blood; [4]) |
| --- | --- | --- | --- | --- | --- | --- | --- | --- |
| C[C@@H]1CN(c2cc(=O)n(C)c3ccc(C#N)nc23)[C@@H](C)CN1C(c1ccc(OC(F)(F)F)cc1)c1nc(C2CC2)no1 (single isomer, unassigned) [Example 758] | 75 nM | 860 nM | 300 nM | – | – | – | – | – |
| COCC(c1ccc(C(F)(F)F)cn1)N1C[C@H](C)N(c2cc(=O)n(C)c3ccc(C#N)nc23)C[C@H]1C (single isomer, unassigned) [Example 1278] | – | – | – | 400 nM | 220 nM | 2000 nM | – | – |
| CC[C@@H]1CN(c2cc(=O)n(C)c3ccc(C#N)nc23)[C@@H](C)CN1C(C)c1ccc(OC(C)C)cc1 (single isomer, unassigned) [Example 1348] | – | – | – | 15 nM | 110 nM | 29 nM | – | – |
| CC[C@H]1CN(C(c2ccc(F)cc2)c2ccc(C#N)cc2)[C@H](CC)CN1c1cc(=O)n(C)c2ccc(C#N)nc12 (stereo partly drawn) [Example 1036] | – | – | – | 520 nM | 300 nM | 200 nM | – | – |
| COC[C@@H]1CN(c2cc(=O)n(C)c3ccc(C#N)nc23)[C@@H](C)CN1C(c1ccc(F)cc1)c1ccc(C(F)(F)F)cn1 (stereo partly drawn) [Example 1402] | – | – | – | 100 nM | 300 nM | 260 nM | – | – |
| C[C@@H]1CN(c2cc(=O)n(C)c3ccc(C#N)nc23)[C@@H](C)CN1C(c1ccc(F)cc1)c1nc(C2CC2)co1 (single isomer, unassigned) [Example 777] | 750 nM | 68 nM | 770 nM | – | – | – | – | – |
| CC[C@@H]1CN(c2cc(=O)n(C)c3ccc(C#N)nc23)[C@@H](C)CN1C(c1ccc(C)cc1)c1ccc(C)cc1 [Example 1098] | – | – | – | 300 nM | 570 nM | – | 150 nM | – |
| CC(c1ccc(OC(F)(F)F)cc1)N1C[C@H](C)N(c2cc(=O)n(C)c3ccc(C#N)nc23)C[C@H]1CN1CCN(C)CC1 (stereo partly drawn) [Example 1418] | – | – | – | 62000 nM | 67000 nM | 20000 nM | – | – |
| C[C@@H]1CN(c2cc(=O)n(C)c3ccc(C#N)nc23)[C@@H](C)CN1C(c1ccc(F)cc1)c1c(F)cc(F)cc1F (single isomer, unassigned) [Example 692] | – | – | – | 2500 nM | 810 nM | 680 nM | – | – |
| CC(c1c(F)cccc1F)N1CCN(c2c(C#N)c(=O)n(C)c3ccc(C#N)nc23)C[C@H]1C (single isomer, unassigned) [Example 950] | 370 nM | 210 nM | – | – | – | – | – | 3800 nM |
| CC[C@H]1CN(C(C)c2ccc(F)cc2)[C@H](C)CN1c1cc(=O)n(C)c2ccc(C#N)nc12 (single isomer, unassigned) [Example 1136] | – | – | – | 11000 nM | 1100 nM | 2300 nM | – | – |
| CC(c1ccc(F)c(Cl)c1)N1C[C@H](C)N(c2cc(=O)n(C)c3ccc(C#N)nc23)C[C@H]1C (single isomer, unassigned) [Example 1257] | – | – | – | 1100 nM | 7900 nM | 1700 nM | – | – |
| COC(=O)C1CN(c2cc(=O)n(C)c3ccc(C#N)nc23)CCN1C(c1ccc(F)cc1)c1ccc(F)cc1OC (single isomer, unassigned) [Example 70, Methyl 4-(6-cyano-1-methyl-2-oxo-1,2-dihydro-1,5-naphthyridin-4-yl)-1-((4-fluoro-2-methoxyphenyl)(4-fluorophenyl)methyl)piperazine-2-carboxylate] | – | – | – | 19000 nM | 220000 nM | 10000 nM | – | – |
| Cc1cc(C(C)N2C[C@H](C)N(c3c(C#N)c(=O)n(C)c4ccc(C#N)nc34)C[C@H]2C)no1 (single isomer, unassigned) [Example 803] | 7000 nM | 2000 nM | 20000 nM | – | – | – | – | – |
| C[C@@H]1CN(c2c(C#N)c(=O)n(C)c3ccc(C#N)nc23)[C@@H](C)CN1C(c1ccc(F)cc1)c1cncn1C (stereo partly drawn) [Example 849] | 130000 nM | > 250000 nM | – | – | – | – | – | 20000 nM |
| COCCOc1cc(C(C)N2C[C@H](C)N(c3cc(=O)n(C)c4ccc(C#N)nc34)C[C@H]2C)ccc1OC (single isomer, unassigned) [Example 1303] | – | – | – | 2900 nM | 65000 nM | – | 20000 nM | – |
| C[C@@H]1CN(c2cc(=O)n(C)c3ccc(C#N)nc23)[C@@H](C)CN1C(c1ccc(F)cc1)c1ccc(C(F)(F)F)cn1 (single isomer, unassigned) [Example 680] | – | – | – | 2500 nM | 1200 nM | – | 480 nM | – |
| Cc1ccc(C(c2cccc(F)n2)N2C[C@H](C)N(c3cc(=O)n(C)c4ccc(C#N)nc34)C[C@H]2C)cc1 (single isomer, unassigned) [Example 478] | – | – | – | 2400 nM | 2100 nM | – | 3800 nM | – |
| COc1cc(C(C)N2C[C@H](C)N(c3cc(=O)n(C)c4ccc(C#N)nc34)C[C@H]2C)ccc1F (single isomer, unassigned) [Example 1232] | – | – | – | 1400 nM | 33000 nM | 20000 nM | – | – |

| SMILES | IC50 (human DGKζ; DGKζ liposome (LIPGLO) assay) | IC50 (human DGKα; DGKα liposome (LIPGLO) assay) | EC50 (Human venous whole blood; [1]) | IC50 (human DGKζ; liposome (LIPGLO) assay) | IC50 (human DGKα; liposome (LIPGLO) assay) | EC50 (Human venous whole blood; [2]) | EC50 (Human venous whole blood; [3]) | EC50 (Human venous whole blood; [4]) |
| --- | --- | --- | --- | --- | --- | --- | --- | --- |
| COc1ccc(C(C)N2C[C@H](C)N(c3c(C#N)c(=O)n(C)c4ccc(C#N)nc34)C[C@H]2C)nc1 (single isomer, unassigned) [Example 800] | 330 nM | 380 nM | – | – | – | – | – | 5900 nM |
| C[C@H]1CN(C(c2ccc(F)cc2)c2ccc(C(F)(F)F)cn2)[C@H](CO)CN1c1cc(=O)n(C)c2ccc(C#N)nc12 (single isomer, unassigned) [Example 1389] | – | – | – | 880 nM | 170 nM | 920 nM | – | – |
| C[C@@H]1CN(c2cc(=O)n(C)c3ccc(C#N)nc23)[C@@H](C)CN1C(c1ccc(F)cc1)c1cc(F)ccn1 (single isomer, unassigned) [Example 474] | – | – | – | 1200 nM | 260 nM | 260 nM | – | – |
| C[C@@H]1CN(c2cc(=O)n(C)c3ccc(C#N)nc23)[C@@H](C)CN1C(c1ccc(F)cc1)c1nccn1C (stereo partly drawn) [Example 713] | – | – | – | 51000 nM | 6600 nM | 13000 nM | – | – |
| COc1cc(OC(F)(F)F)ccc1CN1C[C@H](C)N(c2cc(=O)n(C)c3ccc(C#N)nc23)C[C@H]1C [Example 352, 8-((2S,5R)-4-(2-methoxy-4-(trifluoromethoxy)benzyl)-2,5-dimethylpiperazin-1-yl)-5-methyl-6-oxo-5,6-dihydro-1,5-naphthyridine-2-carbonitrile] | – | – | – | 1700 nM | 520 nM | – | 790 nM | – |
| CC(c1ccc(F)cc1F)N1CCN(c2c(C#N)c(=O)n(C)c3ccc(C#N)nc23)C[C@H]1C (single isomer, unassigned) [Example 970] | 28000 nM | 870 nM | – | – | – | – | – | 11000 nM |
| C[C@@H]1CN(c2cc(=O)n(C)c3ccc(C#N)nc23)[C@@H](C)CN1C(c1ccc(F)cc1)c1cscn1 (stereo partly drawn) [Example 721] | 1100 nM | 72 nM | – | – | – | – | – | 3500 nM |
| C[C@@H]1CN(c2cc(=O)n(C)c3ccc(C#N)nc23)[C@@H](C)CN1Cc1ccc(F)c(OC(F)(F)F)c1 [Example 585] | – | – | – | 1500 nM | 9300 nM | – | 2100 nM | – |
| Cc1ccc(C(c2ccc(Cl)cc2)N2CCN(c3c(C#N)c(=O)n(C)c4ccc(C#N)nc34)C[C@H]2C)cc1 (single isomer, unassigned) [Example 945] | 9300 nM | 9800 nM | – | – | – | – | – | 1600 nM |
| CC[C@H]1CN(C(C)c2ccc(OC(F)(F)F)cc2F)[C@H](CC)CN1c1cc(=O)n(C)c2ccc(C#N)nc12 (single isomer, unassigned) [Example 1372] | – | – | – | 1700 nM | 460 nM | 1400 nM | – | – |
| C[C@@H]1CN(c2c(C#N)c(=O)n(C)c3ccc(C#N)nc23)[C@@H](C)CN1C(c1ccc(F)cc1)c1cccc(C(F)(F)F)n1 (single isomer, unassigned) [Example 845] | 6200 nM | 2500 nM | – | – | – | – | – | 1500 nM |
| Cc1ccc(C(c2ccc(C)cn2)N2C[C@H](C)N(c3cc(=O)n(C)c4ccc(C#N)nc34)C[C@H]2C)cc1 (single isomer, unassigned) [Example 457] | – | – | – | 1100 nM | 140 nM | 590 nM | – | – |
| C[C@@H]1CN(c2cc(=O)n(C)c3ccc(C#N)nc23)[C@@H](C)CN1C(c1ccc(F)cc1)c1nc(C2CN(C(=O)OC(C)(C)C)C2)no1 (single isomer, unassigned) [Example 757] | 160 nM | 23 nM | – | – | – | – | – | 1000 nM |
| CC(c1ccc(OC(C)(C)C)cc1)N1C[C@H](C)N(c2cc(=O)n(C)c3ccc(C#N)nc23)C[C@H]1C (single isomer, unassigned) [Example 1441] | – | – | – | 4800 nM | 20000 nM | 5400 nM | – | – |
| CC(c1cc(C(C)(C)C)on1)N1C[C@H](C)N(c2cc(=O)n(C)c3ccc(C#N)nc23)C[C@H]1C (single isomer, unassigned) [Example 1283] | – | – | – | 7600 nM | 4100 nM | – | 4000 nM | – |
| CC[C@H]1CN(C(C)c2ccc(C(F)(F)F)cc2)[C@H](C)CN1c1cc(=O)n(C)c2ccc(C#N)nc12 (single isomer, unassigned) [Example 1143] | – | – | – | 13000 nM | 1400 nM | 4000 nM | – | – |
| Cc1ccc(F)c(CN2CCN(c3c(C#N)c(=O)n(C)c4ccc(C#N)nc34)C[C@H]2C)c1 [Example 1006] | 7000 nM | 2600 nM | 11000 nM | – | – | – | – | – |
| CC(c1ccc(OC(F)(F)F)cc1)N1C[C@H](C)N(c2cc(=O)n(C)c3ccc(C#N)nc23)C[C@H]1CO (single isomer, unassigned) [Example 1387] | – | – | – | 12000 nM | 2600 nM | 20000 nM | – | – |
